{
  "source": "ChEMBL document CHEMBL1201862",
  "about": "“PubChem BioAssay data set” (2004)",
  "key": {"[1]": {"target": "T1, E3 ubiquitin-protein ligase XIAP (Homo sapiens, UniProt P98170)", "T1 sequence (P98170 whole entry)": "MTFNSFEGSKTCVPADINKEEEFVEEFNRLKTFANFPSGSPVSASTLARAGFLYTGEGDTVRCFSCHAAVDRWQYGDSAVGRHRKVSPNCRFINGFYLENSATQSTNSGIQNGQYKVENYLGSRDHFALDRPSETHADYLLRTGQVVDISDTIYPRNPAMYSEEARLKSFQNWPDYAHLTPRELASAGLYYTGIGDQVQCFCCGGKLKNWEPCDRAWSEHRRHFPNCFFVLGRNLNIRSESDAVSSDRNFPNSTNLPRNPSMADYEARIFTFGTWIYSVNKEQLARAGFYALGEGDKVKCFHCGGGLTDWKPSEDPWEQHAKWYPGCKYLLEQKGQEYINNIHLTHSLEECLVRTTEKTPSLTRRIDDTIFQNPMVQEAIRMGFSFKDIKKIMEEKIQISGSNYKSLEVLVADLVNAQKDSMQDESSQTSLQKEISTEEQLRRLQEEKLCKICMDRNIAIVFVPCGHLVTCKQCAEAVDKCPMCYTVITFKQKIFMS", "assay": "XIAP antagonists, biochemical, IAP family, fluorescence polarization (AID 1018)", "assay_type": "functional"}, "[2]": {"assay": "Luminescence Cell-Based Dose Response HTS to Identify Inhibitors of 5'UTR Stem-Loop Driven Prion Protein mRNA Translation in H4 Neuroglioblastoma Cells. [Related pubchem assays: 1827 (Project Summary), 1813 (Primary HTS)]", "assay_type": "functional"}, "[3]": {"assay": "inhibitors of SNCA 5'UTR-driven reporter translation, confirmation, H4 neuroglioma cells, luminescence (AID 1988)", "assay_type": "functional, cell-based"}, "[4]": {"assay": "inhibitors of firefly luciferase expression or activity, dose response, H4 neuroglioma cells, luminescence (AID 1990)", "assay_type": "functional, cell-based"}, "[5]": {"assay": "cytotoxicity in HEK-293T cells, dose response, cytotoxicity control for BCR NF-kB inhibitor project, luminescence, B-cell screen hits (AID 489021);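 also: cells exposed to compound for about 14 hours before viability readout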", "assay_type": "functional, cell-based"}, "HEK293": {"test_system": "HEK293", "assay": "cytotoxicity in HEK293T NF-kB-Luc cells, SAR follow-up, cytotoxicity control for NF-kB activator project, cell-based, resazurin fluorescence (AID 493251)", "assay_type": "functional", "conditions": "Homo sapiens"}, "[6]": {"target": "T1, E3 ubiquitin-protein ligase XIAP", "assay": "Counter Screen using XIAP-Bir3 for Chemical Antagonists of Bir1/2 domains of IAP-family anti-apoptotic proteins. [Related pubchem assays (depositor defined):AID1018, AID1449, AID1514, AID1638, AID1749, AID1750, AID488957, AID488963]"}, "[7]": {"target": "T2, Microphthalmia-associated transcription factor (Homo sapiens, UniProt O75030)", "T2 sequence (O75030 whole entry)": "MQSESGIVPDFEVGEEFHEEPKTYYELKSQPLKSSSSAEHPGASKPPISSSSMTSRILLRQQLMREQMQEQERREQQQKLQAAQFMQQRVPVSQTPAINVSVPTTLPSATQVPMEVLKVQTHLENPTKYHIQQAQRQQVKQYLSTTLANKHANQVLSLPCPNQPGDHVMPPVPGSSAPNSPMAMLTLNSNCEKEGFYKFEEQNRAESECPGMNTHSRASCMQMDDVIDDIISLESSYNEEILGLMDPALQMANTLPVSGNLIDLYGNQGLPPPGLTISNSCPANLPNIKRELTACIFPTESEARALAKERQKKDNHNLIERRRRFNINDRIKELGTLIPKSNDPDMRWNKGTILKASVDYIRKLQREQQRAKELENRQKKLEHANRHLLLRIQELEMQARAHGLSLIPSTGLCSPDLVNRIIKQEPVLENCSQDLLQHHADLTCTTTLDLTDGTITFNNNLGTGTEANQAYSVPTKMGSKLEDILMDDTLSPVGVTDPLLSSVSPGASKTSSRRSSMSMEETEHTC", "assay": "TRPM1 promoter luciferase signal decrease, dose response, MITF inhibitor project, cell-based, SK-MEL-5, cherry-picked, set 3 (AID 493073)", "assay_type": "functional"}, "Cysteine protease ATG4B": {"target": "Cysteine protease ATG4B (Homo sapiens, UniProt Q9Y4P1)", "sequence (Q9Y4P1 whole entry)": "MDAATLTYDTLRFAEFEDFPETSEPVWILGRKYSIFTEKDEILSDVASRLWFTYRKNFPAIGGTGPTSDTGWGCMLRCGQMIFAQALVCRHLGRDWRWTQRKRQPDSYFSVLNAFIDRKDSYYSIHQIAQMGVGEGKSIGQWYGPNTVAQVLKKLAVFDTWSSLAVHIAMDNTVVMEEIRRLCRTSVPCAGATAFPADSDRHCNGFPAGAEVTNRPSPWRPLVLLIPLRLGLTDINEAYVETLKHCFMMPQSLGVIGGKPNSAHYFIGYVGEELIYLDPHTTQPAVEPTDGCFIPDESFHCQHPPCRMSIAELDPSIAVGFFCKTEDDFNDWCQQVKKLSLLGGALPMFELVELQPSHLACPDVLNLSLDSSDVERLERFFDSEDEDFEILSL", "assay_type": "functional"}, "Phospholipase A2": {"target": "Phospholipase A2 (Homo sapiens, UniProt P04054)", "sequence (P04054 whole entry)": "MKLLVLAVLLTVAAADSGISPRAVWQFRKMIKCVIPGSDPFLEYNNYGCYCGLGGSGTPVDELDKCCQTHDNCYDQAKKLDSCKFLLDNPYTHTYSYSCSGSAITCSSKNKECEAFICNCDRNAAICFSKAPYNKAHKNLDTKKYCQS", "assay_type": "functional"}, "CHO": {"test_system": "CHO", "assay": "cytotoxicity in TLR9-MyD88 CHO cells, dose response, cytotoxicity control for TLR9-MyD88 binding inhibitor project, cell-based, luminescence (AID 588339);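 also: CHO cells stably coexpressing TLR9 and MyD88 fusions from primary screen; compound exposure lasted 48 hours before viability readout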", "assay_type": "functional, hamster", "conditions": "Cricetulus griseus"}, "[8]": {"target": "Photoreceptor-specific nuclear receptor (Homo sapiens, UniProt Q9Y5X4)", "sequence (Q9Y5X4 whole entry)": "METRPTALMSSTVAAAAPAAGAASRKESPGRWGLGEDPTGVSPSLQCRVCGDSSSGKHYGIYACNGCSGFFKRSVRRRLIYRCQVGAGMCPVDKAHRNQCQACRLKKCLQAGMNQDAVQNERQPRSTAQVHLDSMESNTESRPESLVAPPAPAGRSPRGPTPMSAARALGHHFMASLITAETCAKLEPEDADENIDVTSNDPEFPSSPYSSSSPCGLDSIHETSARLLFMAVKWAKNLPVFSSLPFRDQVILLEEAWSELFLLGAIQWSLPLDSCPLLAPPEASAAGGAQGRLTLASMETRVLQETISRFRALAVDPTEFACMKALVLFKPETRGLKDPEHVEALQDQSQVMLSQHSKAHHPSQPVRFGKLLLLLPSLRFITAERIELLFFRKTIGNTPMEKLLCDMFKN", "assay_type": "functional, cell-based"}, "Beta Lactamase": {"target": "Beta Lactamase (Pseudomonas aeruginosa, UniProt Q932Y6)", "sequence (Q932Y6 whole entry)": "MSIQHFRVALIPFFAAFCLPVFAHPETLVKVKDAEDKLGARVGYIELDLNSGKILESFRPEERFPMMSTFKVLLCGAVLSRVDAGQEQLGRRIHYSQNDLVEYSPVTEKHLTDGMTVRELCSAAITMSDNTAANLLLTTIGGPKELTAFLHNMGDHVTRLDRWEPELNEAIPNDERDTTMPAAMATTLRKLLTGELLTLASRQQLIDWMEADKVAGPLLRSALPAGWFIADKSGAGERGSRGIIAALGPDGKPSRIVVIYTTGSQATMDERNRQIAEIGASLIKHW", "assay": "beta-lactamase reporter inhibitor potency, dose response, artefact control for TLR9-MyD88 binding inhibitor project, BLA reporter cells, FRET fluorescence (AID 588341);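 also: cell based assay in CHO-K1 cells stably expressing beta-lactamase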", "assay_type": "cell-based"}, "[9]": {"target": "Heat shock protein HSP 90-alpha (Homo sapiens, UniProt P07900)", "assay_type": "functional, organism-based"}},
  "note": "Activity calls are given as the source filed them.",
  "data": [
    {"smiles": "CCOc1ccc(-c2noc(CCC(=O)O)n2)cc1", "values": [
      {"measurement": "IC50", "setting": "[1]", "result": "> 100 µM (not active)"},
      {"measurement": "EC50", "setting": "[2]", "result": "15 µM (active)"},
      {"measurement": "EC50", "setting": "[3]", "result": "7.97 µM (active)"},
      {"measurement": "EC50", "setting": "[4]", "result": "6.28 µM (active)"},
      {"measurement": "IC50", "setting": "[5]", "result": "> 80 µM (inactive)"},
      {"measurement": "IC50", "setting": "HEK293", "result": "> 80 µM (inactive)"},
      {"measurement": "IC50", "setting": "[6]", "result": "> 100 µM (inactive)"},
      {"measurement": "AC50", "setting": "[7]", "result": "2.61 µM (active)"}
    ]},
    {"smiles": "Cc1sc(NC(=O)c2ccccc2)c(C(=O)c2ccccc2)c1C", "values": [
      {"measurement": "IC50", "setting": "Cysteine protease ATG4B", "result": "15.3 µM (active)"},
      {"measurement": "IC50", "setting": "Phospholipase A2", "result": "9.18 µM (active)"}
    ]},
    {"smiles": "O=c1c(Br)ccc(Br)cc1Br", "values": [
      {"measurement": "IC50", "setting": "CHO", "result": "0.558 µM (active)"},
      {"measurement": "IC50", "setting": "[8]", "result": "3.72 µM (active)"},
      {"measurement": "IC50", "setting": "Beta Lactamase", "result": "6.14 µM (active)"},
      {"measurement": "AC50", "setting": "[9]", "result": "0.438 µM (active)"}
    ]}
  ]
}
